Test results taken from paper PMC6389928, “Biomolecular Interaction, Anti-Cancer and Anti-Angiogenic Properties of Cobalt(III) Schiff Base Complexes” (Scientific Reports, 2019).
Read-outs that look alike come from different tables or passages of the source.

Experiments:
A549 cells [1] = settings: A549, respective IC50 concentrations, 24 h
Description: AO/EB Staining of A549 cells: The mode of cell death induced by the complexes was deciphered using acridine orange (AO) and ethidium bromide (EB) staining protocol. Cells were cultured in 6 well plates, treated with the complexes and allowed for 24 h. Then the cells were incubated with AO and EB solutions (1 part of 100 μg/mL AO and 1 part of 100 μg/mL of EB in PBS) and examined in a fluorescent microscope (Carl Zeiss, Jena, Germany) using a UV filter (450–490 nm). Three hundred cells per sample were counted in triplicate for each dose point. The cells were scored as viable, apoptotic and necrotic as judged by the staining pattern, nuclear morphology and cytoplasmic integrity. The percentage of apoptotic and necrotic cells were calculated and the morphological changes were also photographed.

BSA = BSA (Bos taurus, UniProt P02769); settings: for Quenching Constant (kq): τ0 assumed 10^−8 s; for ∆G° / ∆H° / ∆S°: BSA binding; for ∆H° / ∆S°: van't Hoff plot 285-299 K
Description: The obtained fluorescence quenching results were analyzed using the Stern-Volmer eqation, F0/F=1+Ksv[Q]kq=Ksv/τ0 where F0 and F are the fluorescence emission intensities of BSA in the absence and presence of complexes 1 and 2. KSV is the Stern-Volmer quenching constant, [Q] is concentration of the complexes 1 and 2, kq is the quenching rate constant of BSA and τ0 is the average lifetime of the emitter in the absence of quencher. The above equation was applied to determine KSV by linear regression of a plot of F0/F against [Q].
Normally, quenching can take place either as dynamic quenching, static quenching or a combination of both mechanisms. Static quenching refers to fluorophore-quencher complex formation in the ground state while dynamic quenching refers to a process in which the fluorophores and the quencher come into contact during the transient existence of the excited state[57],[58]. The plots of F0/F versus [Q]
For the static quenching process, the binding constant (Kb) and the number of binding sites (n) can be determined by the following equation[62] log[(F0−F)]/F=logKb+nlog[Q] where F0 and F are the fluorescence intensities of the emitter in the absence and presence of the quencher, respectively, and [Q] the concentration of the quencher. Thus, a plot of log F0 − F/F versus log [Q] (Fig. 3) was used to determine Kb.
In general, intermolecular interacting forces between a small molecule and a biomacromolecule include hydrogen bonding, van der Waals force, and electrostatic and hydrophobic interactions. The thermodynamic parameters, enthalpy change (ΔH°) and entropy change (ΔS°) of the binding are important for confirming the binding mode. For this reason, these thermodynamic parameters have been calculated using the equation, lnKb=−ΔH°/RT+ΔS°/RΔG°=ΔH°−TΔS°=−RTInKb where Kb is the binding constant at the corresponding temperature, and R is the gas constant. The ΔH° and ΔS° values are calculated from the slope and intercept from plotting ln Kb versus 1/T (Fig. 3).
The concentration of BSA prepared in PBS buffer (pH = 7.4) was determined spectrophotometrically using the extinction coefficient of 43,800 M^−1 cm^−1 at 280 nm[80]. The fluorescence spectra of BSA were recorded at room temperature with an excitation wavelength of BSA at 280 nm and the emission at 350 nm by keeping the concentration of BSA constant (1.35 × 10^−[…]) while increasing the cobalt(III) complex concentration regularly.

EB - DNA = experiment: Competitive binding with ethidium bromide: fluorescence quenching of EB - DNA; settings: quenching of EB-DNA emission, F0/F vs [complex]/[DNA], λex 450 nm
Source text: The complexes 1 and 2 are non-emissive in nature. […] In this study, changes in the intensity of the fluorescence emission band of EB - DNA complex were monitored after the addition of metal complexes 1 and 2 (Fig. 2). Upon increasing complex concentration in the DNA-EB solution, EB emission intensity was decreased. […] The resulting data (Table 1) of the complexes 1 and 2 with EB-DNA was processed from the standard Stern-Volmer equation[38], F0/F=1+Ksvr where F0 and F are the fluorescence emission intensities in the absence and presence of quencher (i.e. complexes 1 and 2), r is the ratio of concentration of the quencher. Ksv is the Stern-Volmer quenching constant.
For fluorescence quenching experiments, nucleic acids solution was pretreated with ethidium bromide (EB) for 30 min. Solutions of cobalt(III) complexes were then added to this mixture and their effect on the emission intensity was measured. The samples were excited at 450 nm and emission was observed between 500 and 750 nm.

DNA = experiment: Viscosity measurement of DNA; format: binding; settings: 30.0 ± 0.2 °C, increasing amounts of compound
Source text: The mode of interaction between DNA and complexes has been further confirmed using viscosity measurements. The intercalation between DNA and metal complex causes lengthening of the DNA helix and increases DNA’s relative viscosity. Ethidium bromide (EB) is a well known DNA intercalator which was used as a standard to make sure our viscosity determination was working properly. […] The increase in relative viscosity follows the DNA-intercalating ability and the order of relative viscosity is EB > 2 > 1.
CD spectra of CT–DNA in the absence and presence of cobalt(III) complexes 1 and 2 were recorded in phosphate buffer. Each sample solution was scanned in the range of 200–320 nm, and final CD spectra were generated after averaging three scans subtracting the buffer background. Viscosity experiments were performed using an Ubbelohde viscometer at a constant temperature (30.0 ± 0.2 °C).

A549 cells [2] = experiment: Cell cycle analysis by flow cytometry; format: cell-based, Human; settings: A549, IC50 concentrations, 24 h, propidium iodide, compared to control
Description: The possible cell cycle arrest was determined by flow cytometer which is used to distinguish and quantify the cells in different phases of the cell cycle. The cells were treated with the complexes 1 and 2 at the respective half maximal inhibitory concentrations. The cells were fixed, stained with propidium iodide and analysed for DNA/cell content as aspects of cell cycle distribution. The DNA histograms and the percentage of cells in each of the phases are given Fig. 5. […] The increase of cell accumulation in sub G0 - G1 phase indicated delay in progression of cell cycle. The cells thus inhibited in division end up in the apoptosis due to sub G0 − G1 check point arrest. […] In as much as apoptosis itself could be induced due to the DNA damage, necrosis is a clear indication of damage caused by the complexes to the cytosol.
Cell cycle analysis: Cell phase distribution was determined by flow cytometry with DNA staining to reveal the total amount of DNA[94]. […] After incubation, the cells were trypsinized, harvested, fixed in 1 mL 80% cold ethanol and incubated at 4 °C for 15 min. […] Cell cycle distribution was analyzed using FACS (fluorescent activated cell sorter) (Becton-Dickinson, Sanjose, CA, USA) with 15 mW, 488 nm argon ion laser. […] The data were acquired and analyzed using Dean-Jett-Fox algorithm.

Chain of BSA (P02769 25-607): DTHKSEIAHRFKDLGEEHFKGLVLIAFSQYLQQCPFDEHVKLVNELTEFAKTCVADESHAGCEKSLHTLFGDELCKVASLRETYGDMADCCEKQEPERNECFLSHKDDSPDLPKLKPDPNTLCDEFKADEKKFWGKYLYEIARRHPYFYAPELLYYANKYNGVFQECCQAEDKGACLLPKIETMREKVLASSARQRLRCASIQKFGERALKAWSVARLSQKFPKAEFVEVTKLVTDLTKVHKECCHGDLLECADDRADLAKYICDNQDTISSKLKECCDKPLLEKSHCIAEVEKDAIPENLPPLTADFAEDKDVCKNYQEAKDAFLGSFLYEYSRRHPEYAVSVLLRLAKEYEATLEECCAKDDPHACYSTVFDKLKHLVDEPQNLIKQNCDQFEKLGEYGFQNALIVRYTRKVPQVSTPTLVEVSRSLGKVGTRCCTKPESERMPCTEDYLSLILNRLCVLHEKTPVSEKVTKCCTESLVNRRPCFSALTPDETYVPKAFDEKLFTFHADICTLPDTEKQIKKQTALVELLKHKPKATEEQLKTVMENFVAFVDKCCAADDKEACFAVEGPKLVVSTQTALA

Row | SMILES | mode of cell death (AO/EB staining) (A549 cells [1]) | Quenching Constant (kq) (BSA; 285 K) | Quenching Constant (kq) (BSA; 292 K) | Quenching Constant (kq) (BSA; 299 K) | ∆G° (BSA; 285 K) [kcal/mol] | ∆G° (BSA; 292 K) [kcal/mol] | ∆G° (BSA; 299 K) [kcal/mol] | ∆H° (BSA) | ∆S° (BSA) | Stern–Volmer constant (Ksv) (EB - DNA) | effect on relative viscosity of DNA (DNA) | effect on cell cycle distribution (A549 cells [2])
1 | CCCCCCCCCCCC[NH2+][Co-3]123([NH2+]CCCCCCCCCCCC)[O]c4ccccc4C=[N+]1CC[N+]2=Cc1ccccc1[O]3.[O-][Cl+3]([O-])([O-])[O-] [Complex 1, trans-[Co(salen)(DA)2](ClO4)] | most of the cells succumbed to apoptosis and a few to necrosis | 1.6763 10^13 M^−1 s^−1 | 1.3531 10^13 M^−1 s^−1 | 1.0862 10^13 M^−1 s^−1 | -6.238 | -6.7008 | -7.4297 | +69.429 kJ mol^−1 | +335.928 J mol^−1 K^−1 | 0.5694 | the relative viscosity of DNA increased | gradual increase in sub G0 − G1 and G2 − M phases
2 | CCCCCCCCCCCC[NH2+][Co-3]123([NH2+]CCCCCCCCCCCC)[O]c4ccccc4C=[N+]1c1ccccc1[N+]2=Cc1ccccc1[O]3.[O-][Cl+3]([O-])([O-])[O-] [Complex 2, trans-[Co(salophen)(DA)2](ClO4)] | most of the cells succumbed to apoptosis and a few to necrosis | 1.4802 10^13 M^−1 s^−1 | 1.2245 10^13 M^−1 s^−1 | 1.0114 10^13 M^−1 s^−1 | -5.6506 | -6.0217 | -6.9336 | +85.617 kJ mol^−1 | +383.182 J mol^−1 K^−1 | 0.6067 | the relative viscosity of DNA increased | gradual increase in sub G0 − G1 and G2 − M phases
